Measured values: US20240366594A1, “Small Molecule Inhibitors of Formation of Neutrophil-Derived Extracellular Traps (NETosis) and Uses Thereof” (The Brigham and Women's Hospital, Inc., priority 2021, published 2024)

How the values were obtained:
[1] = tested on: primary human neutrophils; experiment: Extracellular DNA release by PMA-activated human neutrophils; format: cell-based; conditions: 1 μM GSK484 for 1 h, then 1 μM PMA for 4 hours; FIG. 5A
Description: FIGS. 5A-J. Class I/II HDACs drive NET formation. • A) Quantification of extracellular DNA released by neutrophils treated, or not, with 1 μM GSK484 for 1 h and then stimulated with 1 μM PMA for 4 hours. Unstimulated, neutrophils not treated with drugs were used as a control. • B) Freshly purified human neutrophils were treated with the indicated HDAC inhibitors at different doses (0.08, 0.4, 2 and 10 μM) for 1 hour. Extracellular DNA release was assessed in the supernatant 3 hours after PMA stimulation. The dotted line represents the amount of DNA released from neutrophils treated with PMA alone. […] NETosis induction was measured as level of anti-CitH3 fluorescent signal. […] NET induction was measured as in (C). […] NETosis induction was measured as level of anti-CitH3 fluorescent signal. […] NET induction was measured as in (F). • H, I) Freshly isolated neutrophils from two different donors were treated with different doses of ricolinostat, citarinostat (10, 2, 0.4, 0.08 μM) or GSK484 (10, 5, 2 μM) for 1 h and then stimulated with 1 μM PMA. NET induction was measured as level of anti-CitH3 fluorescent signal (H) and by microscopy as number of cells positive for CitH3 signal per field of view (FOV) (I). […] NET induction was measured as level of anti-CitH3 fluorescent signal. […] Statistics were calculated using One-way ANOVA (A, E, I) and Two-way ANOVA (B, F, G, H, L). […]

human neutrophils = experiment: ROS production (luminol-HRP luminescence) in human neutrophils; format: cell-based; conditions: ricolinostat 10 μM, 1 μM PMA 3 h; FIG. 1G left
Description: FIGS. 1A-H. Class I/II HDACs drive NET formation • (A and B) Freshly purified human (A) or mouse (B) neutrophils were treated with the indicated HDAC inhibitors at different doses (10, 2, 0.4, 0.08 μM), or with GSK484 (10 μM), for 1 h and then stimulated with 1 μM PMA for 3 h. Cells were fixed and stained with anti-citrullinated histone H3 (CitH3) antibody. NETosis induction was measured as the level of anti-CitH3 fluorescent signal. PMA alone represents 100% of NET induction. “-”: Cells treated with the highest dose of the indicated drug but not activated with PMA. • (C and D) Human neutrophils were treated, or not, with ricolinostat or GSK484 and then stimulated with 1 μM PMA. NETosis induction was measured as area of nuclei stained with DAPI. (C) 3D reconstruction of nuclei in each treatment (grid size 7.8 μm). (D) Quantification of DAPI signal from multiple fields of view (D) (n=9 for unstimulated, not pretreated with any drug [NT] and ricolinostat, n=7 for GSK484). • (E and F) Human neutrophils were treated as in (C-D), and immunoblot analysis of the indicated proteins was performed. Relative quantification of band intensity was analyzed with ImageJ software (F). White violins plots depict the quantification of histone H3 acetylation; red violin plots depict the quantification of histone H3 citrullination. […] ROS production was measured by luminescence with luminol-HRP. […]

COc1cc(C(=O)N2CC[C@@H](O)[C@@H](N)C2)cc2nc(-c3cc4ccccc4n3CC3CC3)n(C)c12 [GSK484]
extracellular DNA released by PMA-treated neutrophils [1]: significant decrease

O=C(CCCCCCNC(=O)c1cnc(N(c2ccccc2)c2ccccc2)nc1)NO [ricolinostat]
reactive oxygen species (ROS) production (human neutrophils): did not alter
